Where no end group is shown, it is not given here.
Experiments:
HIV-1IIIB = assay: HIV-1 antiviral assay in CEM-SS cells (MTS readout)
HCMV strain AD169 = assay: HCMV plaque formation assay in MRC-5 cells; settings: for inhibition of HCMV plaque formation as compared to the virus control: 10 micrograms per ml, 7-10 days
Streptococcus pneumoniae = Streptococcus pneumoniae growth assay; assay type: cell-based; settings: 10 micrograms per ml; 5×10^5 CFU/mL; read visually
[1] = test system: hepatitis B virus (HBV) ayw strain; assay: HBV experimental assay system (HepG2-2.2.15, TaqMan PCR of secreted HBV DNA); assay type: cell-based; settings: 10 micrograms per ml, six days, HBV DNA by TaqMan PCR
Source text: HepG2-2.2.15 is a stable cell line containing the hepatitis B virus (HBV) ayw strain genome (ATCC Cat. No. CRL-11997). Antiviral compounds blocking any late step of viral replication such as transcription, translation, pregenome encapsidation, reverse transcription, particle assembly and release can be identified and characterized using this cell line. In this assay, an active compound will reduce the production of secreted HBV from cells, measured by utilizing real time quantitative PCR (TaqMan) assay to directly and accurately measure HBV DNA copies.
HepG2-2.2.15 cells were plated in 96-well microtiter plates. After 16-24 hours the confluent monolayer of HepG2-2.2.15 cells was washed and the medium was replaced with complete medium containing test peptides—10 micrograms per ml—in duplicate. […] Six days following the initial administration of the peptides, the cell culture supernatants was collected, treated with pronase and DNAse and then used in a real-time quantitative TaqMan PCR assay. The PCR-amplified HBV DNA was detected in real-time by monitoring increases in fluorescence signals that result from the exonucleolytic degradation of a quenched fluorescence probe molecule that hybridizes to the amplified HBV DNA. […] Antiviral activity was calculated from the reduction in HBV DNA levels (% virus control). […]

HUVEC = assay: Endothelial tube formation assay; assay type: cell-based, human; settings: 10 micrograms per ml, 20 hours
murine spleen cells = assay: Th1/Th2 cytokine profiling assay (Ovalbumin-restimulated spleen cells, CBA kit); assay type: cell-based, Balb/c mice; settings: 10 micrograms per ml, Ovalbumin restimulation, 72 hours
[2] = test system: Primary Human endothelial cells (HUVEC); assay: Endothelial cell migration assay; assay type: cell-based; settings: 10 micrograms per ml, 22 hours

| Compound | antiviral activity of positive control compounds (HIV-1) (HIV-1IIIB) | antiviral activity of positive control compound (HCMV) (HCMV strain AD169; positive control) | inhibition of the growth of Streptococcus pneumoniae (Streptococcus pneumoniae) [%] | inhibition of HCMV plaque formation as compared to the virus control (HCMV strain AD169) | inhibition of HBV replication as compared to the virus control infection [1] [%] | inhibition of the tube formation of human endothelial cells (HUVEC) [%] | change of the production of IL-5 (murine spleen cells) | induction of the production of IFN-γ (murine spleen cells) [%] | induction of the production of IL-2 (murine spleen cells) | induction of the production of IL-4 (murine spleen cells) [%] | induction of the production of TNF-alpha (murine spleen cells) | inhibition of the migration of human endothelial cells [2] [%] |
| --- | --- | --- | --- | --- | --- | --- | --- | --- | --- | --- | --- | --- |
| Cc1cn([C@H]2C[C@H](N=[N+]=[N-])[C@@H](CO)O2)c(=O)[nH]c1=O [AZT] | expected levels of antiviral activity |  |  |  |  |  |  |  |  |  |  |  |
| Nc1nc(O)c2ncn(COC(CO)CO)c2n1 [Ganciclovir, reference compound] |  | expected levels of antiviral activity |  |  |  |  |  |  |  |  |  |  |
| CC(C)(C)NC(=O)[C@@H]1CN(Cc2cccnc2)CCN1C[C@@H](O)C[C@@H](Cc1ccccc1)C(=O)N[C@H]1c2ccccc2C[C@H]1O [indinavir] | expected levels of antiviral activity |  |  |  |  |  |  |  |  |  |  |  |
| Arg-Gly-Asp-Ser-Pro-Ala-Ser-Ser-Lys-Pro-OH (RGDSPASSKP-OH) [Peptide 1] |  |  | 100 | did not inhibit | 57.8 | 54 | did not significantly change | 24.5 | 134.2% | 132.5 | 34.0% | 2 |
| Asp-Arg-Val-Tyr-Ile-His-Pro-Phe-OH (DRVYIHPF-OH) [Peptide 2] |  |  | 100 | did not inhibit | 43.4 |  | did not significantly change | 36.4 | did not significantly change | 55 | did not significantly change | 10 |

From patent US20100197603A1, “USE OF RGDSPASSKP AND OPTIONALLY ANGIOTENSIN II AS THERAPEUTIC AGENTS IN THE TREATMENT OF EG S. PNEUMONIAE INFECTIONS” (priority 2007, published 2010)
